Source: patent US9273040B2 (Merck Sharp & Dohme Corp., priority 2011, dated 2016)

Legend:
Assay type in all cases: cell-based
[1] = biological target: T1, human Nav1.5 channels stably expressed in HEK 293 cells (Homo sapiens, UniProt Q14524); assay: PatchXpress 7000 automated patch-clamp, sodium current; details: selectivity over Nav1.5
T1 construct: expressed in transfected cells
Outline: (§1)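 IC50 values came from Hill-equation fits of rundown-corrected inhibition. PatchXpress recordings at 22° C held cells 20 mV negative to V0.5 inact and applied 10 Hz trains of 30 ms steps to −20 mV (Nav1.7) or an 8000 ms prepulse 7 mV positive to V0.5 inact. […]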

[2] = biological target: T2, human Nav1.7 channels stably expressed in HEK 293 cells (Homo sapiens, UniProt Q15858); assay: as above; details: 22° C., read-out: potency for the Nav 1.7 sodium ion channel (as measured by PatchXpress)
T2 construct: expressed in transfected cells
Outline: as §1

[3] = biological target: T1, human Nav1.5 channels stably expressed in HEK 293 cells; assay: IonWorks Quattro automated patch-clamp, sodium current, inactivated state block; details: selectivity over Nav1.5
Procedure: (§2) Compounds were tested on human Nav1.7 and Nav1.5 channels stably expressed in HEK 293 cells. […] Cells were sealed on a planar substrate using the Population Patch Plate (PPC) technology. Electrical access was obtained using both nystatin and amphotericin. A double-pulse protocol was used for the determination of IC50 values for inactivated state block. Nav1.7 and Nav1.5 expressing cells were voltage clamped at −100 mV and −110 mV, respectively. A depolarizing prepulse to −10 mV (Nav1.7) or −30 mV (Nav1.5) for 1000 ms followed by a 10 ms repolarization to −100 mV (Nav1.7) or −110 mV (Nav1.5) was given to generate fractional channel inactivation of ˜50%, followed by a 10 ms test pulse to −10 mV (Nav1.7) or −30 mV (Nav1.5) to measure peak current in control conditions and after compound addition. The following recording solutions were used (mM). External: 150 NaCl, 2 CaCl2, 5 KCl, 1 Mg Cl2, 10 HEPES, 12 Dextrose; internal: 120 CsF, 30 CsCl, 10 EGTA, 5 HEPES, 5 NaF, 2 MgCl2.
(§3) For all electrophysiology experiments, offline analysis was used to correct for current rundown and to determine percent inhibition as a function of drug concentration. IC50 values were determined by fitting to the Hill equation.

[4] = biological target: T2, human Nav1.7 channels stably expressed in HEK 293 cells; assay: as above; details: read-out: potency for the Nav 1.7 sodium ion channel (as measured by IonWorks)
Procedure: as §2, §3

T1 sequence (Q14524 whole entry): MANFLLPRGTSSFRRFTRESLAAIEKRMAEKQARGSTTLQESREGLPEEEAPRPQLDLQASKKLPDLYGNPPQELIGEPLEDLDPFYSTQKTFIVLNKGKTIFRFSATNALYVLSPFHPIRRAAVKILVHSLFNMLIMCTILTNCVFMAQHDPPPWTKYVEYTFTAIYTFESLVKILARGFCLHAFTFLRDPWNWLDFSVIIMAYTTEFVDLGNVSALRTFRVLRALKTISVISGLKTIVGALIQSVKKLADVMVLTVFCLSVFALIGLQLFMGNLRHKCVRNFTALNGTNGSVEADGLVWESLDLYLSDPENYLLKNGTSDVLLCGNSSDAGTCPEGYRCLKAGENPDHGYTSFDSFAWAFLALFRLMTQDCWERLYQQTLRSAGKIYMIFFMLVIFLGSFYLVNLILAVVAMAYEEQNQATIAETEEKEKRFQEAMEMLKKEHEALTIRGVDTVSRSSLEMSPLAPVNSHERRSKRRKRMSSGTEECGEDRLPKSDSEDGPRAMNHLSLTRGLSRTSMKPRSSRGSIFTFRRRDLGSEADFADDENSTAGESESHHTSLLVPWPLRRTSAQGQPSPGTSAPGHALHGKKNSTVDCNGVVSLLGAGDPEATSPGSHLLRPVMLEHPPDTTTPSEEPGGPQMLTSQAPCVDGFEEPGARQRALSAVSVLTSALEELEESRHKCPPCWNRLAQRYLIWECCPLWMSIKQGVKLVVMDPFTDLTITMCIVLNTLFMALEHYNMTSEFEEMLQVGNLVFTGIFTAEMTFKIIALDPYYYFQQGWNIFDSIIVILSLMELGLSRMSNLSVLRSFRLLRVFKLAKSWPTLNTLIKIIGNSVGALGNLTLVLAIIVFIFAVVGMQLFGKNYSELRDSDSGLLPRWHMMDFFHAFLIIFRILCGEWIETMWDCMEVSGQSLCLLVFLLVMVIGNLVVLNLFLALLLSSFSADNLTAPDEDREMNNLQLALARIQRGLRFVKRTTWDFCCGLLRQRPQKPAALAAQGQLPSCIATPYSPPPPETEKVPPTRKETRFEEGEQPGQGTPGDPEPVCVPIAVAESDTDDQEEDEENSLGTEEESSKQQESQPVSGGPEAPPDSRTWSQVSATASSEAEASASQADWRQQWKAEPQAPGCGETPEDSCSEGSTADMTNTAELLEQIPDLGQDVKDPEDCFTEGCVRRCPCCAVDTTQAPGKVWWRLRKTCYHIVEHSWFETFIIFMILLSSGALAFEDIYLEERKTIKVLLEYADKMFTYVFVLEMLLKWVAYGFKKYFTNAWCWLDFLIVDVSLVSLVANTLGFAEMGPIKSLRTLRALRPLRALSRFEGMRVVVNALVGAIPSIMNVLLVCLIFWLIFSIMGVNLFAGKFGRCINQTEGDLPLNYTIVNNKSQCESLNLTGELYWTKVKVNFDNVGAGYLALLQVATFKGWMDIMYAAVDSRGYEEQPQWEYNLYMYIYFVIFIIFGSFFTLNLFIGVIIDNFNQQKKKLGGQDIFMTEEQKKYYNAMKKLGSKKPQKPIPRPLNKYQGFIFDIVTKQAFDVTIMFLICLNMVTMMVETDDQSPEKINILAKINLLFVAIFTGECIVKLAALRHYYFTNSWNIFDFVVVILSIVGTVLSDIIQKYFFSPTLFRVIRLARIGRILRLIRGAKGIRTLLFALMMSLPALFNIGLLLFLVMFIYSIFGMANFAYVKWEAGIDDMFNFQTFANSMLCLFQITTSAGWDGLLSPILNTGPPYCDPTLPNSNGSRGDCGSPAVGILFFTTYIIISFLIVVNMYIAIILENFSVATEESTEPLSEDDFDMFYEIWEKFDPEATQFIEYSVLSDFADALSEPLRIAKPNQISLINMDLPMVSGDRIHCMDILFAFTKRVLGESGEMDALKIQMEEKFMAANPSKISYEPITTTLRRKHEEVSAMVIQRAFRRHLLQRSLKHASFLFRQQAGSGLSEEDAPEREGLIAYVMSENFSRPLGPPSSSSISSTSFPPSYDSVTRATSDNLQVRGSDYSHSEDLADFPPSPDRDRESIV
T2 sequence (Q15858 whole entry): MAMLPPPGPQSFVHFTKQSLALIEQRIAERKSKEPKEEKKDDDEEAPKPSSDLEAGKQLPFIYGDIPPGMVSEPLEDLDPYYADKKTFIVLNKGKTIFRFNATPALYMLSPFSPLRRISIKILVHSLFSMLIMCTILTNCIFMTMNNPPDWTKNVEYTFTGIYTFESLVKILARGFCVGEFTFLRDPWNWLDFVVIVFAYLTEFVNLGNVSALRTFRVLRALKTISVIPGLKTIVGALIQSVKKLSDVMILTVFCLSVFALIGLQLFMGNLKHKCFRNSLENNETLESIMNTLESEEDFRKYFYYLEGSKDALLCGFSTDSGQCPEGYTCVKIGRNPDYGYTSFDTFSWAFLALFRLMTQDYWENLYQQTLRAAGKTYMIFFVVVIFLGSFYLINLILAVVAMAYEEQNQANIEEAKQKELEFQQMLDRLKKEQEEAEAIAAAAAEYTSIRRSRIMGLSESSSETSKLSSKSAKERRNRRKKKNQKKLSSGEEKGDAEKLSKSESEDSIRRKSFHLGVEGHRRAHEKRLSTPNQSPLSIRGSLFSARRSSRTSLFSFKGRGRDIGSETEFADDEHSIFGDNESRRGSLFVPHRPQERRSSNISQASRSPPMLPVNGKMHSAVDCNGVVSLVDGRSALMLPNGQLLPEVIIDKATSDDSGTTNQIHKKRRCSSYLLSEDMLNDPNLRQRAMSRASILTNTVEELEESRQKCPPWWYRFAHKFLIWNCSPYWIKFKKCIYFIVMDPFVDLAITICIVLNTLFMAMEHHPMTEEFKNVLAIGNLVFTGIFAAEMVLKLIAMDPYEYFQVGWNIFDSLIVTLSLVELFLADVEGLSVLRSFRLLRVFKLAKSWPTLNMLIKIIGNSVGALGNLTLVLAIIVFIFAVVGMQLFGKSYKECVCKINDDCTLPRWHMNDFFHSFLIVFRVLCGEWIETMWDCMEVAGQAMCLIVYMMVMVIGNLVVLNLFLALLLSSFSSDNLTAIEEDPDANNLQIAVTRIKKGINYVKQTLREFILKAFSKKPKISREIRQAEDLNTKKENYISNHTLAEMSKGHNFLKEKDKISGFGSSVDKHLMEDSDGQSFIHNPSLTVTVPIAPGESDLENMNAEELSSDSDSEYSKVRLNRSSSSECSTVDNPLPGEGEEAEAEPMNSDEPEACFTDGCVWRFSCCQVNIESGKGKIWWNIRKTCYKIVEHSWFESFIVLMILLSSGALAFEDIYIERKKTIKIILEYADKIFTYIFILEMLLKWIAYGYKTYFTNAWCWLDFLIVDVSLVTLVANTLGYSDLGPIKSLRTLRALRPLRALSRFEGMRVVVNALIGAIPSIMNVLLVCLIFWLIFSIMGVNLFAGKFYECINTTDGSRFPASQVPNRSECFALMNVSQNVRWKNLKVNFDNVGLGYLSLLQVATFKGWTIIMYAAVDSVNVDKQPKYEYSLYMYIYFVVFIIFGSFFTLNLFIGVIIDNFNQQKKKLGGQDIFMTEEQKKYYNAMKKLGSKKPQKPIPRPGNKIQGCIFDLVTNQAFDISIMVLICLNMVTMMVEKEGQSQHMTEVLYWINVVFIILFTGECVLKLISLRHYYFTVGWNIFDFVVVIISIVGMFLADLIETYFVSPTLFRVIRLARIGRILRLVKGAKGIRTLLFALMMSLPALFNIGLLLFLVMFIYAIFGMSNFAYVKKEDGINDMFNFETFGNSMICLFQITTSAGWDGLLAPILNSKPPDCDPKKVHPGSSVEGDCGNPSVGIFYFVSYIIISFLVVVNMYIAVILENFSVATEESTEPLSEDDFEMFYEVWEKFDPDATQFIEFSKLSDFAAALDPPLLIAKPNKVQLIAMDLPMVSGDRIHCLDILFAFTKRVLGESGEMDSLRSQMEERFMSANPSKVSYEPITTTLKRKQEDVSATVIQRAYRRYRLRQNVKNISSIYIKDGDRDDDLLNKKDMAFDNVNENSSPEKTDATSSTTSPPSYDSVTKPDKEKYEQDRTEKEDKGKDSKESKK

## O=c1oc2cc(S(=O)(=O)Nc3ncns3)ccc2n1Cc1ccccc1 [Compound 1-10, 3-benzyl-2-oxo-N-1,2,4-thiadiazol-5-yl-2,3-dihydro-1,3-benzoxazole-6-sulfonamide]
[1]
  ratio of Nav 1.5:Nav 1.7 potency, determined by PatchXpress measurement: > 62
[2]
  IC50: 486 nM
[3]
  ratio of Nav 1.5:Nav 1.7 potency, determined by IonWorks measurement: > 41
[4]
  IC50: 803 nM

## O=c1oc2cc(S(=O)(=O)Nc3ncns3)ccc2n1Cc1cccc(Cl)c1 [Compound 1-11, 3-(3-chlorobenzyl)-2-oxo-N-1,2,4-thiadiazol-5-yl-2,3-dihydro-1,3-benzoxazole-6-sulfonamide]
[1]
  ratio of Nav 1.5:Nav 1.7 potency, determined by PatchXpress measurement: 59
[2]
  IC50: 360 nM
[3]
  ratio of Nav 1.5:Nav 1.7 potency, determined by IonWorks measurement: 59
[4]
  IC50: 360 nM

## O=c1oc2cc(S(=O)(=O)Nc3ncns3)ccc2n1Cc1ccccc1Cl [Compound 1-12, 3-(2-chlorobenzyl)-2-oxo-N-1,2,4-thiadiazol-5-yl-2,3-dihydro-1,3-benzoxazole-6-sulfonamide]
[1]
  ratio of Nav 1.5:Nav 1.7 potency, determined by PatchXpress measurement: 67
[2]
  IC50: 408 nM
[3]
  ratio of Nav 1.5:Nav 1.7 potency, determined by IonWorks measurement: 67
[4]
  IC50: 408 nM

## O=c1oc2cc(S(=O)(=O)Nc3ncns3)ccc2n1Cc1ccc(Cl)cc1 [Compound 1-13, 3-(4-chlorobenzyl)-2-oxo-N-1,2,4-thiadiazol-5-yl-2,3-dihydro-1,3-benzoxazole-6-sulfonamide]
[1]
  ratio of Nav 1.5:Nav 1.7 potency, determined by PatchXpress measurement: > 34
[2]
  IC50: 976 nM
[3]
  ratio of Nav 1.5:Nav 1.7 potency, determined by IonWorks measurement: > 34
[4]
  IC50: 976 nM

## NCc1ccccc1Cn1c(=O)oc2cc(S(=O)(=O)Nc3ncns3)ccc21 [Compound 1-14, 3-[2-(aminomethyl)benzyl]-2-oxo-N-1,2,4-thiadiazol-5-yl-2,3-dihydro-1,3-benzoxazole-6-sulfonamide]
[1]
  ratio of Nav 1.5:Nav 1.7 potency, determined by PatchXpress measurement: 45
[2]
  IC50: 365 nM
[3]
  ratio of Nav 1.5:Nav 1.7 potency, determined by IonWorks measurement: > 125
[4]
  IC50: 265 nM

## NCc1ccc(Cl)cc1Cn1c(=O)oc2cc(S(=O)(=O)Nc3ncns3)ccc21 [Compound 1-15, 3-[2-(aminomethyl)-5-chlorobenzyl]-2-oxo-N-1,2,4-thiadiazol-5-yl-2,3-dihydro-1,3-benzoxazole-6-sulfonamide]
[3]
  ratio of Nav 1.5:Nav 1.7 potency, determined by IonWorks measurement: > 55
[4]
  IC50: 605 nM

## O=c1oc2cc(S(=O)(=O)Nc3ncns3)ccc2n1Cc1cccc2c1CCNC2 [Compound 1-16, 2-oxo-3-(1,2,3,4-tetrahydroisoquinolin-5-ylmethyl)-N-1,2,4-thiadiazol-5-yl-2,3-dihydro-1,3-benzoxazole-6-sulfonamide]
[1]
  ratio of Nav 1.5:Nav 1.7 potency, determined by PatchXpress measurement: > 9
[2]
  IC50: 3210 nM
[4]
  IC50: 1690 nM

## O=c1oc2cc(S(=O)(=O)Nc3ncns3)ccc2n1Cc1cccc2ccncc12 [Compound 1-17, 3-(isoquinolin-8-ylmethyl)-2-oxo-N-1,2,4-thiadiazol-5-yl-2,3-dihydro-1,3-benzoxazole-6-sulfonamide]
[3]
  ratio of Nav 1.5:Nav 1.7 potency, determined by IonWorks measurement: 65
[4]
  IC50: 216 nM

## NC/C=C/c1ccccc1Cn1c(=O)oc2cc(S(=O)(=O)Nc3ncns3)ccc21 [Compound 3-3, 3-{2-[(1E)-3-Aminoprop-1-en-1-yl]benzyl}-2-oxo-N-(1,2,4-thiadiazol-5-yl)-2,3-dihydro-1,3-benzoxazole-6-sulfonamide]
[1]
  ratio of Nav 1.5:Nav 1.7 potency, determined by PatchXpress measurement: > 89
[2]
  IC50: 336 nM
[3]
  ratio of Nav 1.5:Nav 1.7 potency, determined by IonWorks measurement: 65
[4]
  IC50: 216 nM

## O=c1oc2cc(S(=O)(=O)Nc3ncns3)ccc2n1Cc1ccccc1-c1cccc2c1CNCC2 [Compound 3-4, 2-oxo-3-[2-(1,2,3,4-tetrahydroisoquinolin-8-yl)benzyl]-N-1,2,4-thiadiazol-5-yl-2,3-dihydro-1,3-benzoxazole-6-sulfonamide]
[1]
  ratio of Nav 1.5:Nav 1.7 potency, determined by PatchXpress measurement: > 272
[2]
  IC50: 110 nM
[3]
  ratio of Nav 1.5:Nav 1.7 potency, determined by IonWorks measurement: > 209
[4]
  IC50: 158 nM

## O=c1oc2cc(S(=O)(=O)Nc3ncns3)ccc2n1Cc1ccccc1C1=CCCNC1 [Compound 3-6, 2-oxo-3-[2-(1,2,5,6-tetrahydropyridin-3-yl)benzyl]-N-1,2,4-thiadiazol-5-yl-2,3-dihydro-1,3-benzoxazole-6-sulfonamide]
[1]
  ratio of Nav 1.5:Nav 1.7 potency, determined by PatchXpress measurement: > 91
[2]
  IC50: 329 nM
[4]
  IC50: 287 nM

## O=c1oc2cc(S(=O)(=O)Nc3ncns3)ccc2n1Cc1ccccc1-c1ccccc1N1CCNCC1 [Compound 3-9, 2-oxo-3-[(2′-piperazin-1-ylbiphenyl-2-yl)methyl]-N-1,2,4-thiadiazol-5-yl-2,3-dihydro-1,3-benzoxazole-6-sulfonamide]
[3]
  ratio of Nav 1.5:Nav 1.7 potency, determined by IonWorks measurement: > 59
[4]
  IC50: 563 nM

## O=c1oc2cc(S(=O)(=O)Nc3ncns3)ccc2n1Cc1cccc(-c2ccc3c(c2)CNCC3)c1 [Compound 3-12, 2-oxo-3-[3-(1,2,3,4-tetrahydroisoquinolin-7-yl)benzyl]-N-1,2,4-thiadiazol-5-yl-2,3-dihydro-1,3-benzoxazole-6-sulfonamide]
[1]
  ratio of Nav 1.5:Nav 1.7 potency, determined by PatchXpress measurement: 55
[2]
  IC50: 545 nM
[4]
  IC50: 287 nM

## O=c1oc2cc(S(=O)(=O)Nc3ncns3)ccc2n1Cc1cccc(-c2cccc3c2CNCC3)c1 [Compound 3-13, 2-oxo-3-[3-(1,2,3,4-tetrahydroisoquinolin-8-yl)benzyl]-N-1,2,4-thiadiazol-5-yl-2,3-dihydro-1,3-benzoxazole-6-sulfonamide]
[3]
  ratio of Nav 1.5:Nav 1.7 potency, determined by IonWorks measurement: > 83
[4]
  IC50: 395 nM

## O=c1oc2cc(S(=O)(=O)Nc3ncns3)ccc2n1Cc1cccc(-c2cccc3c2CCNC3)c1 [Compound 3-14, 2-oxo-3-[3-(1,2,3,4-tetrahydroisoquinolin-5-yl)benzyl]-N-1,2,4-thiadiazol-5-yl-2,3-dihydro-1,3-benzoxazole-6-sulfonamide]
[3]
  ratio of Nav 1.5:Nav 1.7 potency, determined by IonWorks measurement: 35
[4]
  IC50: 430 nM

## O=c1oc2cc(S(=O)(=O)Nc3ncns3)ccc2n1Cc1cccc(C2=CCNCC2)c1 [Compound 3-16, 2-oxo-3-[3-(1,2,3,6-tetrahydropyridin-4-yl)benzyl]-N-1,2,4-thiadiazol-5-yl-2,3-dihydro-1,3-benzoxazole-6-sulfonamide]
[3]
  ratio of Nav 1.5:Nav 1.7 potency, determined by IonWorks measurement: > 43
[4]
  IC50: 759 nM

## O=c1oc2cc(S(=O)(=O)Nc3ncns3)ccc2n1Cc1cccc(C2=CCNCCC2)c1 [Compound 3-17, 2-oxo-3-[3-(2,5,6,7-tetrahydro-1H-azepin-4-yl)benzyl]-N-1,2,4-thiadiazol-5-yl-2,3-dihydro-1,3-benzoxazole-6-sulfonamide]
[3]
  ratio of Nav 1.5:Nav 1.7 potency, determined by IonWorks measurement: > 40
[4]
  IC50: 827 nM

## C[C@@H](c1ccccc1)n1c(=O)oc2cc(S(=O)(=O)Nc3ncns3)ccc21 [Compound 4-8, 2-oxo-3-[(1S)-1-phenylethyl]-N-1,2,4-thiadiazol-5-yl-2,3-dihydro-1,3-benzoxazole-6-sulfonamide]
[3]
  ratio of Nav 1.5:Nav 1.7 potency, determined by IonWorks measurement: > 22
[4]
  IC50: 1480 nM

## O=c1oc2cc(S(=O)(=O)Nc3ncns3)ccc2n1C(c1ccccc1)c1ncco1 (stereo not drawn) [Compound 4-10, 3-[1,3-oxazol-2-yl(phenyl)methyl]-2-oxo-N-1,2,4-thiadiazol-5-yl-2,3-dihydro-1,3-benzoxazole-6-sulfonamide]
[1]
  ratio of Nav 1.5:Nav 1.7 potency, determined by PatchXpress measurement: > 47
[2]
  IC50: 643 nM
[4]
  IC50: 1330 nM

## O=c1oc2cc(S(=O)(=O)Nc3ncns3)ccc2n1C(c1ccccc1)C1CC1 (stereo not drawn) [Compound 4-12, 3-[cyclopropyl(phenyl)methyl]-2-oxo-N-1,2,4-thiadiazol-5-yl-2,3-dihydro-1,3-benzoxazole-6-sulfonamide]
[3]
  ratio of Nav 1.5:Nav 1.7 potency, determined by IonWorks measurement: > 32
[4]
  IC50: 1040 nM

## C=CCC(c1ccccc1)n1c(=O)oc2cc(S(=O)(=O)Nc3ncns3)ccc21 (stereo not drawn) [Compound 4-13, 2-oxo-3-(1-phenylbut-3-en-1-yl)-N-1,2,4-thiadiazol-5-yl-2,3-dihydro-1,3-benzoxazole-6-sulfonamide]
[1]
  ratio of Nav 1.5:Nav 1.7 potency, determined by PatchXpress measurement: 177
[2]
  IC50: 88 nM
[4]
  IC50: 272 nM

## CC(c1ccccn1)n1c(=O)oc2cc(S(=O)(=O)Nc3ncns3)c(F)cc21 (stereo not drawn) [Compound 13-6, 5-fluoro-2-oxo-3-(1-pyridin-2-ylethyl)-N-1,2,4-thiadiazol-5-yl-2,3-dihydro-1,3-benzoxazole-6-sulfonamide]
[3]
  ratio of Nav 1.5:Nav 1.7 potency, determined by IonWorks measurement: > 511
[4]
  IC50: 65 nM
